# Measured values from ChEMBL document CHEMBL1134754, “Influence of the terminal amide fragment geometry in some 3-arylideneindolin-2(1H)-ones on their 5-HT1A/5-HT2A receptor activity” (Bioorg Med Chem Lett, 2001).
# How the values were obtained:
# [1] = tested on: Rattus norvegicus; test: Tested for induction of lower lip retraction(LLR) in rats at 20 mg/kg, ip, given 15 min before the test; assay type: functional
# [2] = target: T1, 5-hydroxytryptamine receptor 1A (Rattus norvegicus, UniProt P19327); test: Displacement of [3H]8-OH-DPAT from 5-hydroxytryptamine 1A receptor of rat hippocampus; assay type: tissue-based
# T1 sequence (P19327 whole entry): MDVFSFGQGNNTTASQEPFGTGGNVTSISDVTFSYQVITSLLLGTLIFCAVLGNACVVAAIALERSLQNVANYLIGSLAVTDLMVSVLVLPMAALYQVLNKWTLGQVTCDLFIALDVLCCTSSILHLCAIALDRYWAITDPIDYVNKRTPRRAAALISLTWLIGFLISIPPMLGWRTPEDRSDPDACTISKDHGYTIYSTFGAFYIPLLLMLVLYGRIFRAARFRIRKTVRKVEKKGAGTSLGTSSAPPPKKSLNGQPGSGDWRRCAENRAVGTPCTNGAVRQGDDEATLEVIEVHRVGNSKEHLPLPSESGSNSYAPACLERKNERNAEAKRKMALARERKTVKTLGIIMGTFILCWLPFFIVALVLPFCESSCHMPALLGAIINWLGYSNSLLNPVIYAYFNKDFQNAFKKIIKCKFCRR
# [3] = tested on: Mus musculus; test: In vivo effective dose required for inhibiting (+/-)-DOI-induced (2.5 mg/kg, ip) twitches in mice; assay type: functional
# [4] = tested on: Rattus norvegicus; test: Dose dependendt inhibition of 8-OH-DPAT(1 mg/kg, sc) induced lower lip retraction(LLR) in rats pre-administered 10 mg/kg ip dose; assay type: functional; settings: route intraperitoneal
# [5] = target: 5-hydroxytryptamine receptor 2A (Rattus norvegicus, UniProt P14842); test: Displacement of [3H]- Ketanserin from rat cortex 5-hydroxytryptamine 2A receptor
# [6] = tested on: Rattus norvegicus; test: Tested for induction of lower lip retraction(LLR) in rats at 10 mg/kg, ip, given 15 min before the test; assay type: functional
# [7] = tested on: Rattus norvegicus; test: Dose dependendt inhibition of 8-OH-DPAT(1 mg/kg, sc) induced lower lip retraction(LLR) in rats pre-administered 20 mg/kg ip dose; assay type: functional; settings: route intraperitoneal
# [8] = tested on: Rattus norvegicus; test: Tested for induction of lower lip retraction(LLR) in rats at 20 mg/kg.; assay type: functional
# Chain of 5-hydroxytryptamine receptor 2A (P14842 whole entry): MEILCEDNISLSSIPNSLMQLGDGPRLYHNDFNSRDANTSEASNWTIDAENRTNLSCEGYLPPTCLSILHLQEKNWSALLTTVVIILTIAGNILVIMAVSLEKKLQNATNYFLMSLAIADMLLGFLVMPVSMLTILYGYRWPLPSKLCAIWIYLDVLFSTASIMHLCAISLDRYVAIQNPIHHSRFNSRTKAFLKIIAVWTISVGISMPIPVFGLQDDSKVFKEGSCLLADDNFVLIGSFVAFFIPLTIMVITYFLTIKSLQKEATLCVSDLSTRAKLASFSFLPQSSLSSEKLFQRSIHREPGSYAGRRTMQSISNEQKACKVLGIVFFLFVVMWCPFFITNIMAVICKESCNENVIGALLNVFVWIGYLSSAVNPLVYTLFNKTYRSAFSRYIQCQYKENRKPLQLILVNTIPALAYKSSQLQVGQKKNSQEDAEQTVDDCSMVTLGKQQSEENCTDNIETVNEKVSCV
SMILES,Ki [2],Ki [5],Induction [1],ED50 [3],Incidence_count [4],Induction [6],Incidence_count [7],Induction [8]
O=C1/C(=C/c2cccs2)c2ccccc2N1CCCN1CCN(c2cccc(Cl)c2)CC1,> 50000 nM,64 nM,–,16 mg/kg,–,–,–,–
O=C1/C(=C/c2ccc(Cl)cc2)c2ccccc2N1CCCN1CCN(c2cccc(Cl)c2)CC1,1610 nM,32 nM,–,20 mg/kg,–,–,–,–
COc1ccc(/C=C2\C(=O)N(CCCN3CCN(c4cccc(Cl)c4)CC3)c3ccccc32)cc1,–,36 nM,–,16 mg/kg,–,–,–,–
O=C1/C(=C\c2cccs2)c2ccccc2N1CCCN1CCN(c2cccc(Cl)c2)CC1,20500 nM,138 nM,–,–,–,–,–,–
O=C(c1ccc(F)cc1)C1CCN(CCn2c(=O)[nH]c3ccccc3c2=O)CC1 [KETANSERIN],1930 nM,–,–,0.12 mg/kg,–,–,–,–

# Second part, led by results:
Ki [2],Ki [5],SMILES,Induction [1],ED50 [3],Incidence_count [4],Induction [6],Incidence_count [7],Induction [8]
57 nM,20 nM,O=C1/C(=C\c2cccnc2)c2ccccc2N1CCCN1CCN(c2cccc(Cl)c2)CC1,0.1,27 mg/kg,2.3,0.1,0.9,–
204 nM,366 nM,O=C1/C(=C\c2ccc(Cl)cc2)c2ccccc2N1CCCN1CCN(c2cccc(Cl)c2)CC1,–,15 mg/kg,–,–,–,–
538 nM,20 nM,COc1ccc(/C=C2/C(=O)N(CCCN3CCN(c4cccc(Cl)c4)CC3)c3ccccc32)cc1,–,28.5 mg/kg,–,–,–,–
29 nM,25 nM,O=C1Cc2ccccc2N1CCCN1CCN(c2cccc(Cl)c2)CC1,–,6.5 mg/kg,–,–,–,–
399 nM,38 nM,O=C1/C(=C/c2ccccc2)c2ccccc2N1CCCN1CCN(c2cccc(Cl)c2)CC1,–,28.5 mg/kg,–,–,–,–
54 nM,56 nM,O=C1/C(=C\c2ccccc2)c2ccccc2N1CCCN1CCN(c2cccc(Cl)c2)CC1,–,27.5 mg/kg,1.9,0.1,0.8,0.2
101 nM,7 nM,O=C1/C(=C/c2cccnc2)c2ccccc2N1CCCN1CCN(c2cccc(Cl)c2)CC1,–,9.5 mg/kg,–,–,–,–
